In US20130102631A1, “NOVEL MICROBIOCIDAL DIOXIME ETHER DERIVATIVES” (SYNGENTA CROP PROTECTION LLC, priority 2010, published 2013):

Experiments:
Gaeumannomyces graminis = Gaeumannomyces graminis / liquid culture (take-all of cereals); format: cell-based; conditions: at ≦200 ppm, liquid culture PDB, inhibition of growth photometrically 4-5 days after application, read-out: control of Gaeumannomyces graminis
In short: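 Mycelial fragments of the fungus in potato dextrose broth were added to wells containing compound in DMSO. Plates were incubated at 24° C, and growth inhibition was read photometrically 4-5 days after application.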

[1] = system: Phaeosphaeria nodorum (Septoria nodorum); assay: Phaeosphaeria nodorum (Septoria nodorum) / wheat / leaf disc preventative (glume blotch); format: in vivo; conditions: Parastagonospora nodorum, foliar, wheat leaf segments cv Kanzler, inoculated 2 days after application, assessed 5-7 days after application
In short: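 Wheat cv Kanzler leaf segments on agar were sprayed with formulated compound at 200 ppm and inoculated with spores 2 days later. Incubation at 20 °C, 75% RH, 12/12 h light/dark; percent disease control versus untreated scored 5–7 days after application.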

[2] = system: Blumeria graminis f. sp. tritici (Erysiphe graminis f. sp. tritici); assay: Blumeria graminis f. sp. tritici / wheat / leaf disc preventative (powdery mildew on wheat); format: in vivo; conditions: foliar, wheat leaf segments cv. Kanzler, inoculated 1 day after application, assessed 6-8 days after application
In short: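 Wheat cv. Kanzler leaf segments on agar sprayed with formulated compound at 200 ppm, inoculated 1 day later with powdery mildew, incubated at 20° C, 60% RH (24 h dark then 12 h/12 h). Percent disease control versus untreated scored 6-8 days after application.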

Glomerella lagenarium = Glomerella lagenarium (Colletotrichum lagenarium) / liquid culture (anthracnose); format: cell-based; conditions: Colletotrichum orbiculare; at ≦200 ppm, liquid culture PDB, inhibition of growth photometrically 3-4 days after application; read-out: control of Glomerella lagenarium
In short: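 Glomerella lagenarium conidia in potato dextrose broth added to test compound supplied in DMSO in microtiter wells. Plates incubated at 24° C.; growth inhibition measured photometrically 3-4 days after application.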

Pyrenophora teres = Pyrenophora teres / barley / leaf disc preventative (net blotch); format: in vivo; conditions: foliar, barley leaf segments cv Hasso, inoculated two days after application, assessed 5-7 days after application
Method: Pyrenophora teres/Barley/Leaf Disc Preventative (Net Blotch): Barley leaf segments cv Hasso are placed on agar in a 24-well plate and sprayed with formulated test compound diluted in water at an application rate of 200 ppm. The leaf segments are inoculated with a spore suspension of the fungus two days after application of the test solution. The inoculated leaf segments are incubated at 20° C. and 65% relative humidity under a light regime of 12/12 h (light/dark) in a climate cabinet and the activity of a compound is assessed as disease control compared to untreated when an appropriate level of disease damage appears in untreated check leaf segments (5-7 days after application). […]-2.507; 5.561; 2.561; E/E-2.208; P.57; 2.513; 2.559; 2.558; 2.556; 2.555; 2.374; 2.552; 2.544; 2.537; 2.533; 2.530; 2.528; 2.519; 2.510; 2.516; 2.514; E/E-5.167; E/E-3.002; 2.512

[3] = system: Puccinia recondita f. sp. tritici; assay: Puccinia recondita f. sp. tritici / wheat / leaf disc curative (brown rust); format: in vivo; conditions: foliar, wheat leaf segments cv Kanzler, 200 ppm applied 1 day after inoculation, assessed 6-8 days after application
Method: Puccinia recondita f. sp. tritici/Wheat/Leaf Disc Curative (Brown Rust): Wheat leaf segments cv Kanzler were placed on agar in 24-well plates. The leaf segments were inoculated with a spore suspension of the fungus. The plates were stored in darkness at 19° C. and 75% relative humidity. The formulated test compound diluted in water was applied at an application rate of 200 ppm 1 day after inoculation. […]-2.508; 5.561; 2.561; E/E-2.208; 2.513; 2.559; 2.556; 2.555; 2.374; 2.552; 2.537; 2.519; 2.516; 2.514; […].002; 2.512; E/E-2.507

C/C(=N/OCC(C)(C)CO/N=C1\CCCc2ccc(C)nc21)c1ccccn1 [Compound 2.519]
≥ 80%: inhibition of growth at up to 200 µg/mL (Gaeumannomyces graminis) | pest or weed control at 200 ppm [1] | pest or weed control at 200 ppm [2] | inhibition of growth at up to 200 µg/mL (Glomerella lagenarium) | pest or weed control at 200 ppm (Pyrenophora teres) | pest or weed control at 200 ppm [3]

COc1cccc(/C(C)=N/OCC(C)(C)CO/N=C2\CCCc3ccc(C)nc32)n1 [Compound 2.374]
≥ 80%: inhibition of growth at up to 200 µg/mL (Gaeumannomyces graminis) | pest or weed control at 200 ppm [1] | pest or weed control at 200 ppm [2] | inhibition of growth at up to 200 µg/mL (Glomerella lagenarium) | pest or weed control at 200 ppm (Pyrenophora teres) | pest or weed control at 200 ppm [3]

C/C(=N\OCC(C)(C)CO/N=C1\CCCc2ccc(Oc3ccccc3)nc21)c1cc(C)cc(C)n1 [Compound 2.556]
≥ 80%: inhibition of growth at up to 200 µg/mL (Gaeumannomyces graminis) | pest or weed control at 200 ppm [1] | pest or weed control at 200 ppm [2] | inhibition of growth at up to 200 µg/mL (Glomerella lagenarium) | pest or weed control at 200 ppm (Pyrenophora teres) | pest or weed control at 200 ppm [3]

C/C(=N\OCC(C)(C)CO/N=C1\CCCc2c1nc1ccccc1c2C)c1cc(C)cc(C)n1 [Compound 2.561]
≥ 80%: inhibition of growth at up to 200 µg/mL (Gaeumannomyces graminis) | pest or weed control at 200 ppm [1] | pest or weed control at 200 ppm [2] | inhibition of growth at up to 200 µg/mL (Glomerella lagenarium) | pest or weed control at 200 ppm (Pyrenophora teres) | pest or weed control at 200 ppm [3]

C/C(=N\OCC(C)(C)CO/N=C1\CCCc2ccc(C)nc21)c1cccc(Br)n1 [E/E-2.508]
≥ 80%: inhibition of growth at up to 200 µg/mL (Gaeumannomyces graminis) | pest or weed control at 200 ppm [1] | inhibition of growth at up to 200 µg/mL (Glomerella lagenarium) | pest or weed control at 200 ppm [3]

C/C(=N\OCC(C)(C)CO/N=C1\CCCc2ccc(C)nc21)c1ccc2ccccc2n1 [Compound 2.512]
≥ 80%: inhibition of growth at up to 200 µg/mL (Gaeumannomyces graminis) | pest or weed control at 200 ppm [1] | pest or weed control at 200 ppm [2] | inhibition of growth at up to 200 µg/mL (Glomerella lagenarium) | pest or weed control at 200 ppm (Pyrenophora teres) | pest or weed control at 200 ppm [3]

C/C(=N\OCC(C)(C)CO/N=C1\CCCc2ccc(C)nc21)c1ccc2c(n1)CCCC2 [Compound 2.513]
≥ 80%: inhibition of growth at up to 200 µg/mL (Gaeumannomyces graminis) | pest or weed control at 200 ppm [1] | pest or weed control at 200 ppm [2] | inhibition of growth at up to 200 µg/mL (Glomerella lagenarium) | pest or weed control at 200 ppm (Pyrenophora teres) | pest or weed control at 200 ppm [3]

C/C(=N\OCC1(CO/N=C2\CCCc3ccc(C)nc32)CC1)c1cc(C)cc(C)n1 [E/E-5.167]
≥ 80%: inhibition of growth at up to 200 µg/mL (Gaeumannomyces graminis) | pest or weed control at 200 ppm [1] | pest or weed control at 200 ppm [2] | inhibition of growth at up to 200 µg/mL (Glomerella lagenarium) | pest or weed control at 200 ppm (Pyrenophora teres) | pest or weed control at 200 ppm [3]

C/C(=N\OCCCO/N=C1\CCCc2ccc(C)nc21)c1cccc(-c2ccccc2)n1 [Compound 2.514]
≥ 80%: inhibition of growth at up to 200 µg/mL (Gaeumannomyces graminis) | pest or weed control at 200 ppm [1] | pest or weed control at 200 ppm [2] | inhibition of growth at up to 200 µg/mL (Glomerella lagenarium) | pest or weed control at 200 ppm (Pyrenophora teres) | pest or weed control at 200 ppm [3]

Cc1ccc(O)c(/C=N/OCC(C)(C)CO/N=C2\CCCc3ccc(C)nc32)n1 [Compound 2.533]
≥ 80%: inhibition of growth at up to 200 µg/mL (Gaeumannomyces graminis) | pest or weed control at 200 ppm [1] | pest or weed control at 200 ppm [2] | inhibition of growth at up to 200 µg/mL (Glomerella lagenarium) | pest or weed control at 200 ppm (Pyrenophora teres)

C/C(=N\OCC(C)(C)CO/N=C1\CCCc2ccc(-c3cccc(C)n3)nc21)c1cc(C)cc(C)n1 [Compound 2.559]
≥ 80%: inhibition of growth at up to 200 µg/mL (Gaeumannomyces graminis) | pest or weed control at 200 ppm [1] | pest or weed control at 200 ppm [2] | inhibition of growth at up to 200 µg/mL (Glomerella lagenarium) | pest or weed control at 200 ppm (Pyrenophora teres) | pest or weed control at 200 ppm [3]

CC/C(=N\OCC(C)(C)CO/N=C1\CCCc2ccc(C)nc21)c1ccccn1 [Compound 2.516]
≥ 80%: inhibition of growth at up to 200 µg/mL (Gaeumannomyces graminis) | pest or weed control at 200 ppm [1] | pest or weed control at 200 ppm [2] | inhibition of growth at up to 200 µg/mL (Glomerella lagenarium) | pest or weed control at 200 ppm (Pyrenophora teres) | pest or weed control at 200 ppm [3]

Cc1ccc2c(n1)/C(=N/OCC(C)(C)CO/N=C/c1cccc(Oc3ccccc3)n1)CCC2 [Compound 2.530]
≥ 80%: pest or weed control at 200 ppm [1] | pest or weed control at 200 ppm [2] | inhibition of growth at up to 200 µg/mL (Glomerella lagenarium) | pest or weed control at 200 ppm (Pyrenophora teres)

C/C(=N\OCC(C)(C)CO/N=C1\CCCc2ccc(C)nc21)c1cc(C)cc(C)n1 [E/E-2.168]
≥ 80%: inhibition of growth at up to 200 µg/mL (Gaeumannomyces graminis) | pest or weed control at 200 ppm [1] | pest or weed control at 200 ppm [2] | inhibition of growth at up to 200 µg/mL (Glomerella lagenarium) | pest or weed control at 200 ppm (Pyrenophora teres) | pest or weed control at 200 ppm [3]

C/C(=N\OCC(C)(C)CO/N=C1\CCCc2ccc(C)nc21)c1cccc(C)n1 [E/E-2.002]
≥ 80%: inhibition of growth at up to 200 µg/mL (Gaeumannomyces graminis) | pest or weed control at 200 ppm [1] | pest or weed control at 200 ppm [2] | inhibition of growth at up to 200 µg/mL (Glomerella lagenarium) | pest or weed control at 200 ppm (Pyrenophora teres) | pest or weed control at 200 ppm [3]

Cc1cccc(/C(=N/OCC(C)(C)CO/N=C2\CCCc3ccc(C)nc32)c2ccccc2)n1 [E/E-2.474]
≥ 80%: inhibition of growth at up to 200 µg/mL (Gaeumannomyces graminis) | pest or weed control at 200 ppm [1] | pest or weed control at 200 ppm [2] | inhibition of growth at up to 200 µg/mL (Glomerella lagenarium) | pest or weed control at 200 ppm (Pyrenophora teres) | pest or weed control at 200 ppm [3]

C=C(CO/N=C(\C)c1cccc(C)n1)CO/N=C1\CCCc2ccc(C)nc21 [E/E-3.002]
≥ 80%: inhibition of growth at up to 200 µg/mL (Gaeumannomyces graminis) | pest or weed control at 200 ppm [1] | pest or weed control at 200 ppm [2] | inhibition of growth at up to 200 µg/mL (Glomerella lagenarium) | pest or weed control at 200 ppm (Pyrenophora teres) | pest or weed control at 200 ppm [3]

C/C(=N\OCC1(CO/N=C2\CCCc3c2nc2ccccc2c3C)CC1)c1cc(C)cc(C)n1 [Compound 5.561]
≥ 80%: inhibition of growth at up to 200 µg/mL (Gaeumannomyces graminis) | pest or weed control at 200 ppm [1] | pest or weed control at 200 ppm [2] | inhibition of growth at up to 200 µg/mL (Glomerella lagenarium) | pest or weed control at 200 ppm (Pyrenophora teres) | pest or weed control at 200 ppm [3]

C/C(=N\OCC(C)(C)CO/N=C1\CCCc2ccc(Cl)nc21)c1cc(C)cc(C)n1 [Compound 2.555]
≥ 80%: inhibition of growth at up to 200 µg/mL (Gaeumannomyces graminis) | pest or weed control at 200 ppm [1] | pest or weed control at 200 ppm [2] | inhibition of growth at up to 200 µg/mL (Glomerella lagenarium) | pest or weed control at 200 ppm (Pyrenophora teres) | pest or weed control at 200 ppm [3]

Cc1ccc2c(n1)/C(=N/OCC(C)(C)CO/N=C/c1ccc3ccccc3n1)CCC2 [E/E-2.507]
≥ 80%: inhibition of growth at up to 200 µg/mL (Gaeumannomyces graminis) | pest or weed control at 200 ppm [1] | inhibition of growth at up to 200 µg/mL (Glomerella lagenarium) | pest or weed control at 200 ppm (Pyrenophora teres) | pest or weed control at 200 ppm [3]
